Read-outs that look alike come from different tables or passages of the source.
Columns and labels:
Format in all cases: in vivo
[1] = system: velvetleaf (Abutilon theophrasti); test: Test B pre/postemergence; settings: Abutilon theophrasti; for pest or weed control at 125 g/ha: 125 g ai/ha; for pest or weed control at 500 g/ha: 500 g ai/ha
Method in brief: (§1)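 Compounds in non-phytotoxic solvent with surfactant applied preemergence to planted seeds or postemergence to plants 2 to 18 cm tall (1- to 4-leaf stage). Greenhouse 13 to 15 days, then visual rating against controls on a 0 to 100 scale (100 = complete control).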

[2] = system: barnyardgrass (Echinochloa crus-galli); test: Test B pre/postemergence; settings: Echinochloa crus-galli; for pest or weed control at 125 g/ha: 125 g ai/ha; for pest or weed control at 500 g/ha: 500 g ai/ha
Method in brief: as §1

corn (Zea mays) = test: Test B pre/postemergence; settings: Zea mays
Method in brief: as §1

[3] = system: wheat (Triticum aestivum); test: Test B pre/postemergence; settings: Triticum aestivum; for plant injury at 125 g/ha: 125 g ai/ha; for plant injury at 500 g/ha: 500 g ai/ha
Method in brief: as §1

[4] = system: morningglory (Ipomoea coccinea); test: Test B pre/postemergence; settings: Ipomoea; for pest or weed control at 125 g/ha: 125 g ai/ha; for pest or weed control at 500 g/ha: 500 g ai/ha
Method in brief: as §1

[5] = system: giant foxtail (Setaria faberii); test: Test B pre/postemergence; settings: Setaria faberi; for pest or weed control at 125 g/ha: 125 g ai/ha; for pest or weed control at 500 g/ha: 500 g ai/ha
Method in brief: as §1

[6] = system: Surinam grass (Brachiaria decumbens); test: Test B pre/postemergence; settings: Urochloa decumbens; for pest or weed control at 125 g/ha: 125 g ai/ha; for pest or weed control at 500 g/ha: 500 g ai/ha
Method in brief: as §1

[7] = system: cocklebur (Xanthium strumarium); test: Test B pre/postemergence; settings: Xanthium strumarium; for pest or weed control at 125 g/ha: 125 g ai/ha; for pest or weed control at 500 g/ha: 500 g ai/ha
Method in brief: as §1

[8] = system: pigweed (Amaranthus retroflexus); test: Test B pre/postemergence; settings: Amaranthus retroflexus; for pest or weed control at 125 g/ha: 125 g ai/ha; for pest or weed control at 500 g/ha: 500 g ai/ha
Method in brief: as §1

[9] = system: lambsquarters (Chenopodium album); test: Test B pre/postemergence; settings: Chenopodium album; for pest or weed control at 125 g/ha: 125 g ai/ha; for pest or weed control at 500 g/ha: 500 g ai/ha
Method in brief: as §1

[10] = system: crabgrass (Digitaria sanguinalis); test: Test B pre/postemergence; settings: Digitaria sanguinalis; for pest or weed control at 125 g/ha: 125 g ai/ha; for pest or weed control at 500 g/ha: 500 g ai/ha
Method in brief: as §1

wild oat (Avena fatua) = test: Test B postemergence; settings: Avena fatua, post-emergence
Method in brief: as §1

[11] = system: blackgrass (Alopecurus myosuroides); test: Test B postemergence; settings: Alopecurus myosuroides, post-emergence
Method in brief: as §1

[12] = system: duck salad (Heteranthera limosa); test: Test B flooded paddy test; settings: Heteranthera limosa, Flood, 1000 g ai/ha; scale 0 to 100; read-out: Plant response rating, Ducksalad
Method in brief: (§2)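 Plants were grown to the 2-leaf stage before treatment, then kept in a greenhouse for 13 to 15 days. Injury was rated visually against untreated controls on a 0 to 100 scale, where 0 is no effect and 100 is complete control.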

[13] = system: barnyardgrass (Echinochloa crus-galli); test: Test B flooded paddy test; settings: Echinochloa crus-galli, Flood, 1000 g ai/ha; scale 0 (no effect) to 100 (complete control); read-out: Plant response rating, Barnyardgrass
Method in brief: as §2

[14] = system: umbrella sedge (Cyperus difformis); test: Test B flooded paddy test; settings: Cyperus difformis, Flood, 1000 g ai/ha; scale 0 to 100; read-out: Plant response rating, Sedge, Umbrella
Method in brief: as §2

rice (Oryza sativa) = test: Test B flooded paddy test; settings: Oryza sativa, Flood, 1000 g ai/ha; scale 0 to 100; read-out: Plant response rating, Rice
Method in brief: as §2

With `Nc1nc(C2CC2)nc(C=O)c1F` [Compound 24] the pest or weed control at 125 g/ha ([1]; post-emergence, Postemergence, scale 0 to 100 (0 no effect, 100 complete control), read-out: Velvetleaf plant response rating) was 40%, the pest or weed control at 500 g/ha ([1]; post-emergence, Postemergence, scale 0 to 100, read-out: Plant response rating, Velvetleaf) was 50% and the pest or weed control at 125 g/ha ([1]; pre-emergence, Preemergence, scale 0 to 100 (0 no effect, 100 complete control), read-out: Plant response rating, Velvetleaf) was 50%. It also gave a pest or weed control at 500 g/ha ([1]; pre-emergence, Preemergence, scale 0 to 100 (0 no effect, 100 complete control), read-out: Velvetleaf plant response rating) of 80%, a pest or weed control at 125 g/ha ([2]; post-emergence, Postemergence, scale 0 to 100 (0 no effect, 100 complete control), read-out: Barnyardgrass plant response rating) of 0% and a pest or weed control at 500 g/ha ([2]; post-emergence, Postemergence, scale 0 to 100, read-out: Plant response rating, Barnyardgrass) of 10%. It also gave a pest or weed control at 125 g/ha ([2]; pre-emergence, Preemergence, scale 0 to 100 (0 no effect, 100 complete control), read-out: Plant response rating, Barnyardgrass) of 0%, a pest or weed control at 500 g/ha ([2]; pre-emergence, Preemergence, scale 0 to 100 (0 no effect, 100 complete control), read-out: Barnyardgrass plant response rating) of 20% and a plant injury at 125 g/ha (corn (Zea mays); post-emergence, Postemergence, 125 g ai/ha, scale 0 to 100 (0 no effect, 100 complete control), read-out: Corn plant response rating) of 0%. For the same compound, the Corn plant response rating (crop injury, 0 = no effect, 100 = complete kill) at 500 g/ha (corn (Zea mays); post-emergence, Postemergence, 500 g ai/ha, scale 0 to 100) was 10%, the plant injury at 500 g/ha (corn (Zea mays); pre-emergence, Preemergence, 500 g ai/ha, scale 0 to 100 (0 no effect, 100 complete control), read-out: Corn plant response rating) was 0% and the plant injury at 125 g/ha ([3]; post-emergence, Postemergence, scale 0 to 100 (0 no effect, 100 complete control), read-out: Wheat plant response rating) was 0%. For the same compound, the plant injury at 500 g/ha ([3]; post-emergence, Postemergence, scale 0 to 100, read-out: Plant response rating, Wheat) was 0%, the plant injury at 125 g/ha ([3]; pre-emergence, Preemergence, scale 0 to 100 (0 no effect, 100 complete control), read-out: Plant response rating, Wheat) was 30% and the plant injury at 500 g/ha ([3]; pre-emergence, Preemergence, scale 0 to 100 (0 no effect, 100 complete control), read-out: Wheat plant response rating) was 70%. The pest or weed control at 125 g/ha ([4]; post-emergence, Postemergence, scale 0 to 100 (0 no effect, 100 complete control), read-out: Morningglory plant response rating) was 60%, the pest or weed control at 500 g/ha ([4]; post-emergence, Postemergence, scale 0 to 100, read-out: Plant response rating, Morningglory) was 90% and the pest or weed control at 125 g/ha ([4]; pre-emergence, Preemergence, scale 0 to 100 (0 no effect, 100 complete control), read-out: Plant response rating, Morningglory) was 50%. For the same compound, the pest or weed control at 500 g/ha ([4]; pre-emergence, Preemergence, scale 0 to 100 (0 no effect, 100 complete control), read-out: Morningglory plant response rating) was 90%, the pest or weed control at 125 g/ha ([5]; post-emergence, Postemergence, scale 0 to 100 (0 no effect, 100 complete control), read-out: Foxtail, Giant plant response rating) was 20% and the pest or weed control at 500 g/ha ([5]; post-emergence, Postemergence, scale 0 to 100, read-out: Plant response rating, Foxtail, Giant) was 30%. For the same compound, the pest or weed control at 125 g/ha ([5]; pre-emergence, Preemergence, scale 0 to 100 (0 no effect, 100 complete control), read-out: Plant response rating, Foxtail, Giant) was 10%, the pest or weed control at 500 g/ha ([5]; pre-emergence, Preemergence, scale 0 to 100 (0 no effect, 100 complete control), read-out: Foxtail, Giant plant response rating) was 60% and the pest or weed control at 125 g/ha ([6]; post-emergence, Postemergence, scale 0 to 100 (0 no effect, 100 complete control), read-out: Surinam Grass plant response rating) was 0%. For the same compound, the pest or weed control at 500 g/ha ([6]; post-emergence, Postemergence, scale 0 to 100, read-out: Plant response rating, Surinam Grass) was 10%, the pest or weed control at 125 g/ha ([6]; pre-emergence, Preemergence, scale 0 to 100 (0 no effect, 100 complete control), read-out: Plant response rating, Surinam Grass) was 10% and the pest or weed control at 500 g/ha ([6]; pre-emergence, Preemergence, scale 0 to 100 (0 no effect, 100 complete control), read-out: Surinam Grass plant response rating) was 50%. For the same compound, the pest or weed control at 125 g/ha ([7]; post-emergence, Postemergence, scale 0 to 100 (0 no effect, 100 complete control), read-out: Cocklebur plant response rating) was 50%, the pest or weed control at 500 g/ha ([7]; post-emergence, Postemergence, scale 0 to 100, read-out: Plant response rating, Cocklebur) was 70% and the pest or weed control at 125 g/ha ([7]; pre-emergence, Preemergence, scale 0 to 100 (0 no effect, 100 complete control), read-out: Plant response rating, Cocklebur) was 80%. The pest or weed control at 500 g/ha ([7]; pre-emergence, Preemergence, scale 0 to 100 (0 no effect, 100 complete control), read-out: Cocklebur plant response rating) was 90%, the pest or weed control at 125 g/ha ([8]; post-emergence, Postemergence, scale 0 to 100 (0 no effect, 100 complete control), read-out: Pigweed plant response rating) was 70% and the pest or weed control at 500 g/ha ([8]; post-emergence, Postemergence, scale 0 to 100, read-out: Plant response rating, Pigweed) was 80%. For the same compound, the pest or weed control at 125 g/ha ([8]; pre-emergence, Preemergence, scale 0 to 100 (0 no effect, 100 complete control), read-out: Plant response rating, Pigweed) was 80%, the pest or weed control at 500 g/ha ([8]; pre-emergence, Preemergence, scale 0 to 100 (0 no effect, 100 complete control), read-out: Pigweed plant response rating) was 90% and the pest or weed control at 125 g/ha ([9]; post-emergence, Postemergence, scale 0 to 100 (0 no effect, 100 complete control), read-out: Lambsquarters plant response rating) was 70%. For the same compound, the pest or weed control at 500 g/ha ([9]; post-emergence, Postemergence, scale 0 to 100, read-out: Plant response rating, Lambsquarters) was 80%, the pest or weed control at 125 g/ha ([9]; pre-emergence, Preemergence, scale 0 to 100 (0 no effect, 100 complete control), read-out: Plant response rating, Lambsquarters) was 70% and the pest or weed control at 500 g/ha ([9]; pre-emergence, Preemergence, scale 0 to 100 (0 no effect, 100 complete control), read-out: Lambsquarters plant response rating) was 90%. For the same compound, the pest or weed control at 125 g/ha ([10]; post-emergence, Postemergence, scale 0 to 100 (0 no effect, 100 complete control), read-out: Crabgrass plant response rating) was 20%, the pest or weed control at 500 g/ha ([10]; post-emergence, Postemergence, scale 0 to 100, read-out: Plant response rating, Crabgrass) was 40% and the pest or weed control at 125 g/ha ([10]; pre-emergence, Preemergence, scale 0 to 100 (0 no effect, 100 complete control), read-out: Plant response rating, Crabgrass) was 60%. The pest or weed control at 500 g/ha ([10]; pre-emergence, Preemergence, scale 0 to 100 (0 no effect, 100 complete control), read-out: Crabgrass plant response rating) was 80%, the pest or weed control at 125 g/ha (wild oat (Avena fatua); 125 g ai/ha, scale 0 to 100 (0 no effect, 100 complete control), read-out: Oat, Wild plant response rating) was 0% and the pest or weed control at 500 g/ha (wild oat (Avena fatua); 500 g ai/ha, scale 0 to 100, read-out: Plant response rating, Oat, Wild) was 0%. The pest or weed control at 125 g/ha ([11]; 125 g ai/ha, scale 0 to 100 (0 no effect, 100 complete control), read-out: Blackgrass plant response rating) was 0%, the pest or weed control at 500 g/ha ([11]; 500 g ai/ha, scale 0 to 100, read-out: Plant response rating, Blackgrass) was 10% and the pest or weed control at 1000 g/ha [12] was 0%. For the same compound, the pest or weed control at 1000 g/ha [13] was 0%, the pest or weed control at 1000 g/ha [14] was 20% and the plant injury at 1000 g/ha (rice (Oryza sativa)) was 10%.

Source: patent US8802597B2, “Herbicidal pyrimidines” (E I du Pont de Nemours and Company, priority 2003, dated 2014)
